This passage reports TGI results from PubChem BioAssay (NCI).

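Step 1: Grow cells in 96-well plates. Step 2: Expose to compound for 48 hours at 5 concentrations. Step 3: Interpolate endpoints linearly; if unreached, use highest concentration. Definition used: TGI = concentration required for complete inhibition of growth.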

Some test systems named below: A498 renal; ACHN renal; CAKI-1 renal; HCT-116 colon; HCT-15 colon; NCI-H226 lung; NCI-H522 lung; SK-MEL-28 melanoma; SK-MEL-5 melanoma; UO-31 renal; HOP-92 NSCLC; BT-549 breast; HS 578T breast.
Common to all, as to assay: NCI-60 cell line screen, 48 h

With `C[N+](C)(C)Cc1c(CC#N)[nH]c2ccccc12`, the TGI with A498 renal, with ACHN renal, with CAKI-1 renal, with HCT-116 colon, with HCT-15 colon and in the test with NCI-H226 lung was greater than 100 µM each time. In addition, the TGI with NCI-H522 lung, in the test on SK-MEL-28 melanoma, in the test on SK-MEL-5 melanoma and in the test on UO-31 renal was greater than 100 µM throughout.
Take `CC(C)[Si](OCC1CC(C[C@H]2CC(C[C@H]3C[C@@H](CO[Si](C(C)C)(C(C)C)C(C)C)OC(C)(C)O3)OC(C)(C)O2)OC(C)(C)O1)(C(C)C)C(C)C` (stereo partly drawn): the TGI in the test on A498 renal, with ACHN renal, in the test with CAKI-1 renal, in the test on HCT-116 colon, in the test with HOP-92 NSCLC and in the test with NCI-H226 lung was greater than 100 µM throughout. The TGI in the test on NCI-H522 lung, in the test on SK-MEL-28 melanoma, in the test on SK-MEL-5 melanoma and in the test with UO-31 renal was greater than 100 µM in each case.
Regarding `O=c1[nH]c(=O)n(C2CC(O)C(CO)O2)cc1C#Cc1cc(C(F)(F)F)cc(C(F)(F)F)c1` (stereo not drawn), the TGI in the test on A498 renal, with ACHN renal, with CAKI-1 renal, in the test on HCT-116 colon, in the test with HCT-15 colon and in the test on HOP-92 NSCLC was greater than 100 µM throughout. Besides, the TGI with NCI-H226 lung is greater than 100 µM; in the test with NCI-H522 lung, greater than 81.5 µM; in the test on SK-MEL-28 melanoma, greater than 100 µM; in the test on SK-MEL-5 melanoma it was greater than 55.6 µM; in the test with UO-31 renal, greater than 100 µM.
Turning to `CC(=O)OCC1OC(n2c3c(cc(C#N)c2=S)CCCCCC3)C(OC(C)=O)C(OC(C)=O)C1OC(C)=O` (stereo not drawn), the TGI with A498 renal, in the test on ACHN renal, with BT-549 breast, with HCT-116 colon, with HCT-15 colon and with HOP-92 NSCLC was greater than 100 µM in each case. For the same compound, the TGI in the test on HS 578T breast, in the test with NCI-H226 lung, in the test on NCI-H522 lung, in the test with SK-MEL-28 melanoma, in the test on SK-MEL-5 melanoma and in the test with UO-31 renal was greater than 100 µM throughout.
With `C[C@@H]1OC(=O)C[C@H]2CC(=O)N(CCC3CN(S(=O)(=O)C(F)(F)F)c4ccc(Cc5ccc6c(c5)C(CCN5C[C@H]7[C@@H](CC(=O)O[C@H]7C)CC5=O)CN6S(=O)(=O)C(F)(F)F)cc43)C[C@@H]21` (stereo partly drawn), the TGI in the test on A498 renal, in the test on ACHN renal, with BT-549 breast, in the test on CAKI-1 renal, with HCT-116 colon and in the test on HCT-15 colon was greater than 100 µM each time. The TGI in the test on HOP-92 NSCLC, with NCI-H226 lung, in the test with SK-MEL-28 melanoma, in the test with SK-MEL-5 melanoma and in the test on UO-31 renal was greater than 100 µM each time.
For the compound `COc1cc2c(oc(=O)c3cc4ccoc4c(OC)c32)c2cccc(O)c12`, the TGI in the test on A498 renal, in the test on ACHN renal, with CAKI-1 renal, with HCT-116 colon, with HCT-15 colon and in the test on HOP-92 NSCLC was greater than 100 µM in each case. Besides, the TGI with NCI-H226 lung, with NCI-H522 lung, in the test on SK-MEL-28 melanoma, in the test on SK-MEL-5 melanoma and in the test on UO-31 renal was greater than 100 µM throughout.
Take `Cc1ccc(S(=O)C[C@@]2(C(F)F)NC(=O)NC2=O)cc1` (stereo partly drawn): the TGI with A498 renal, with ACHN renal, in the test with BT-549 breast, in the test on CAKI-1 renal, in the test with HCT-116 colon and with HCT-15 colon was greater than 100 µM each time. In addition, the TGI in the test with HOP-92 NSCLC, in the test with HS 578T breast, with NCI-H226 lung, in the test on NCI-H522 lung, in the test on SK-MEL-28 melanoma and in the test with SK-MEL-5 melanoma was greater than 100 µM throughout. This compound also came in with a TGI in the test with UO-31 renal greater than 100 µM.
Turning to `Cc1ccc(S(=O)(=O)N/N=C/c2oc(-c3ccccc3Cl)c(-c3ccccc3Cl)c2[N+](=O)[O-])cc1`, the TGI in the test on A498 renal was 61.8 µM; in the test with ACHN renal it was 39.2 µM; in the test with CAKI-1 renal it was greater than 100 µM; in the test with HCT-116 colon it was 46.6 µM; in the test with HOP-92 NSCLC, 55 µM; in the test with NCI-H522 lung, 26 µM. In addition, the TGI with SK-MEL-28 melanoma is 62.9 µM; with SK-MEL-5 melanoma, 43.1 µM; in the test with UO-31 renal it was 36 µM.
On to `NC(CCCCN=Cc1nc(-c2ccccc2)oc1O)C(=O)O` (stereo not drawn), for which the TGI in the test on A498 renal, in the test on ACHN renal, in the test on HCT-116 colon, in the test with HCT-15 colon, with HOP-92 NSCLC and in the test on NCI-H226 lung was greater than 100 µM throughout. The TGI in the test with NCI-H522 lung, in the test with SK-MEL-28 melanoma, in the test with SK-MEL-5 melanoma and with UO-31 renal was greater than 100 µM each time.
Turning to `COP(=O)(OC)C(O)/C=C(\Cl)c1ccc(Cl)cc1` (stereo not drawn), the TGI with ACHN renal is greater than 100 µM; in the test on CAKI-1 renal, greater than 100 µM; in the test on HCT-116 colon it was 36.2 µM; in the test on HCT-15 colon it was greater than 100 µM; in the test on HOP-92 NSCLC, 45.3 µM; in the test on HS 578T breast it was greater than 100 µM. The TGI is greater than 100 µM with NCI-H226 lung; greater than 100 µM in the test with NCI-H522 lung; greater than 100 µM in the test with SK-MEL-28 melanoma; 67.8 µM in the test on SK-MEL-5 melanoma; greater than 100 µM in the test with UO-31 renal.
As to `O=C1c2ccccc2C(=O)C2C3c4ccccc4C(c4ccccc43)C12` (stereo not drawn), the TGI with ACHN renal, in the test with HCT-116 colon, with HCT-15 colon, with NCI-H226 lung, in the test with NCI-H522 lung and in the test with SK-MEL-28 melanoma was greater than 100 µM throughout. In addition, in the test on UO-31 renal, the TGI is 59.6 µM.
Take `Nc1ccc(C(=O)NN2C(=O)C(Cl)C2c2ccc([N+](=O)[O-])cc2)cc1` (stereo not drawn): the TGI in the test on A498 renal came to 38.6 µM; in the test on ACHN renal, 27 µM; with CAKI-1 renal, 36.1 µM; in the test on HCT-116 colon, 4.31 µM; in the test with HCT-15 colon, 23.6 µM; with HOP-92 NSCLC it was 37.1 µM. Further, the TGI in the test on NCI-H226 lung was 34.9 µM; in the test on NCI-H522 lung it was 3.21 µM; in the test with SK-MEL-28 melanoma, 20.1 µM; in the test with SK-MEL-5 melanoma, 28.8 µM; in the test on UO-31 renal it was 30.8 µM.
As for `CN(C)CCCNC(=O)c1cc(NC(=O)c2cc(NC(=O)[C@H]3C[C@@H]3C(=O)Nc3cc(C(=O)Nc4cc(C(=O)NCCCN(C)C)n(C)c4)n(C)c3)cn2C)cn1C`, the TGI in the test with ACHN renal was greater than 100 µM; with BT-549 breast, greater than 100 µM; in the test with CAKI-1 renal, greater than 100 µM; in the test with HCT-116 colon it was greater than 100 µM; in the test on HCT-15 colon, greater than 100 µM; in the test with HOP-92 NSCLC, 7.96 µM. For the same compound, the TGI in the test with NCI-H226 lung, in the test on NCI-H522 lung and with SK-MEL-5 melanoma was greater than 100 µM throughout.
Turning to `CCCC(=O)/C=C/S/C=C/C(=O)CCC`, the TGI in the test with ACHN renal stood at 6.92 µM; with CAKI-1 renal, 7.4 µM; in the test with HCT-15 colon, 8.22 µM; in the test with HS 578T breast, 36.3 µM; in the test on NCI-H226 lung it was 17.9 µM; in the test on NCI-H522 lung, 4.2 µM. Moreover, the TGI with SK-MEL-28 melanoma was 18.7 µM; in the test on SK-MEL-5 melanoma, 16.1 µM; in the test on UO-31 renal, greater than 100 µM.
Take `CC(C)C(Sc1nc(-c2ccccc2)c(-c2ccccc2)[nH]1)C(=O)N/N=C/c1ccc([N+](=O)[O-])cc1` (stereo not drawn): the TGI in the test on A498 renal is 42.6 µM; with ACHN renal, greater than 100 µM; with CAKI-1 renal it was 47.9 µM; in the test with HCT-116 colon it was 28 µM; in the test on HCT-15 colon, 36.5 µM; in the test on HOP-92 NSCLC, 35.4 µM. Moreover, the TGI in the test with NCI-H226 lung came out at 40.3 µM; with NCI-H522 lung, 32.4 µM; in the test on SK-MEL-28 melanoma it was 30.6 µM; in the test on SK-MEL-5 melanoma, 21.3 µM; in the test with UO-31 renal, 26.5 µM.
`O=C1SC(c2ccccc2)(c2ccccc2)c2ccccc21`: the TGI with ACHN renal, in the test with CAKI-1 renal, with HCT-116 colon, in the test on HCT-15 colon, with NCI-H226 lung and with NCI-H522 lung was greater than 100 µM each time. In addition, the TGI with SK-MEL-28 melanoma, in the test with SK-MEL-5 melanoma and in the test on UO-31 renal was greater than 100 µM each time.
Consider `Cc1nc2c(n1CCC(C)C)C(=O)c1ccccc1C2=O`, for which the TGI was greater than 100 µM in the test with ACHN renal; 22.6 µM in the test with HCT-116 colon; greater than 100 µM in the test on HCT-15 colon; greater than 100 µM in the test with NCI-H226 lung; 55.9 µM in the test with NCI-H522 lung; 38.8 µM with SK-MEL-28 melanoma. Moreover, the TGI in the test with SK-MEL-5 melanoma stood at 28.4 µM; with UO-31 renal, 86.7 µM.
As for `NC(CCCNc1cccc(O)c1)C(=O)O` (stereo not drawn), the TGI in the test on A498 renal, in the test on ACHN renal, in the test with CAKI-1 renal, in the test with HCT-116 colon, with HCT-15 colon and in the test on HOP-92 NSCLC was greater than 100 µM throughout. For the same compound, the TGI in the test with NCI-H226 lung, in the test with NCI-H522 lung, with SK-MEL-28 melanoma, in the test on SK-MEL-5 melanoma and in the test with UO-31 renal was greater than 100 µM throughout.
Regarding `COc1ccc(CC2NCCc3cc(OC)c(OC)cc32)cc1` (stereo not drawn), the TGI in the test with ACHN renal, in the test with CAKI-1 renal, in the test on HCT-116 colon, in the test with HCT-15 colon, in the test on HOP-92 NSCLC and in the test with NCI-H226 lung was greater than 100 µM in each case. Besides, the TGI with NCI-H522 lung, in the test with SK-MEL-28 melanoma, in the test on SK-MEL-5 melanoma and in the test with UO-31 renal was greater than 100 µM each time.
